According to US9855265B2, “Methods for treating cancer with TrkA receptor tyrosine kinase antagonists” (VM Oncology LLC, priority 2014, dated 2018):

Columns and labels:
FLT1 = biological target: T1, FLT1 (Homo sapiens, UniProt P17948); test: radiometric kinase assay, other kinases: FLT1; assay type: biochemical; settings: duplicate
T1 construct: other kinases of recombinant human cytoplasmic domain
Description: (§1) Compound inhibition in a radiometric based mixed micelle assay: In a final reaction volume of 25 μL, TrkA (h) ([…]) is incubated with the kinase reaction buffer (20 mM HEPES (pH 7.5), 10 mM MgCl2, 1 mM EGTA, 0.02% Brij 35, 0.02 mg/ml BSA, 0.1 mM Na3VO4, 2 mM DTT, 1% DMSO), 0.2 mg/ml substrate PolyEY(4:1) and […], and [^33P-ATP](specific activity approx. 500 cpm/pmol, concentration as required). The reaction is initiated by the addition of the MgATP mix. After incubation for at least 40 minutes at room temperature, the reaction is stopped by the addition of 5 μL of a 3% phosphoric acid solution. 10 μL of the reaction is then spotted onto a P30 filtermat and washed three times for 5 minutes in 75 mM phosphoric acid and once in methanol prior to drying and scintillation counting. TrkA: Recombinant Human Cytoplasmic Domain (amino acids 441-796), Histidine-tagged, expressed in insect cells. Activated in vitro via auto-phosphorylation. Mw=42.8 kDa. Substrates for kinases: poly(EY) for TRKA; poly(EY)(4:1) with 2 mM MnCl2, average Mw=16 kDa Standard conditions (unless otherwise specified): 30 nM TRKA, 0.2 mg/ml poly(EY)+2 mM MnCl2, and 10 μM ([γ-^33P]) ATP. Using the similar assay condition with other kinases of recombinant human cytoplasmic domain, the activities of other kinases could be also measured.

c-Src = c-Src (Homo sapiens, UniProt P12931); test: radiometric kinase assay, other kinases: c-Src; assay type: biochemical; settings: duplicate
Description: as §1

MUSK = biological target: T2, MUSK (Homo sapiens, UniProt O15146); test: radiometric kinase assay, other kinases: MUSK; assay type: biochemical; settings: duplicate
T2 construct: other kinases of recombinant human cytoplasmic domain
Description: as §1

PKCzeta = PKCzeta (Homo sapiens, UniProt Q05513); test: radiometric kinase assay, other kinases: PKCzeta; assay type: biochemical; settings: duplicate
Description: as §1

ITK = ITK (Homo sapiens, UniProt Q08881); test: radiometric kinase assay, other kinases: ITK; assay type: biochemical; settings: duplicate
Description: as §1

LCK = LCK (Homo sapiens, UniProt P06239); test: radiometric kinase assay, other kinases: LCK; assay type: biochemical; settings: duplicate
Description: as §1

PKCalpha = PKCalpha (Homo sapiens, UniProt P17252); test: radiometric kinase assay, other kinases: PKCalpha; assay type: biochemical; settings: duplicate
Description: as §1

P38b/MAPK11 = P38b/MAPK11 (Homo sapiens, UniProt Q15759); test: radiometric kinase assay, other kinases: P38b/MAPK11; assay type: biochemical; settings: duplicate
Description: as §1

PKD2/PRKD2 = PKD2/PRKD2 (Homo sapiens, UniProt Q9BZL6); test: radiometric kinase assay, other kinases: PKD2/PRKD2; assay type: biochemical; settings: duplicate
Description: as §1

ARAF = ARAF (Homo sapiens, UniProt P10398); test: radiometric kinase assay, other kinases: ARAF; assay type: biochemical; settings: duplicate
Description: as §1

IR = biological target: T3, IR (Homo sapiens, UniProt P06213); test: radiometric kinase assay, other kinases: IR; assay type: biochemical; settings: duplicate
T3 construct: other kinases of recombinant human cytoplasmic domain
Description: as §1

FGR = FGR (Homo sapiens, UniProt P09769); test: radiometric kinase assay, other kinases: FGR; assay type: biochemical; settings: duplicate
Description: as §1

JNK3 = JNK3 (Homo sapiens, UniProt P53779); test: radiometric kinase assay, other kinases: JNK3; assay type: biochemical; settings: duplicate
Description: as §1

EPHA1 = biological target: T4, EPHA1 (Homo sapiens, UniProt P21709); test: radiometric kinase assay, other kinases: EPHA1; assay type: biochemical; settings: duplicate
T4 construct: other kinases of recombinant human cytoplasmic domain
Description: as §1

FGFR1 = biological target: T5, FGFR1 (Homo sapiens, UniProt P11362); test: radiometric kinase assay, other kinases: FGFR1; assay type: biochemical; settings: duplicate
T5 construct: other kinases of recombinant human cytoplasmic domain
Description: as §1

[1] = system: Capan-1 human pancreatic cancer cells; test: Cell Viability and Proliferation Assay, Capan-1; assay type: cell-based; settings: after 24 incubation
Description: (§2) Cell Viability and Proliferation Assays. To assess the chemosensitivity of tumor cells, cell viability is measured by CellTiter-Glo® Luminescent Cell Viability Assay (Promega; Wis., USA) per the manufacturer's instruction. Briefly, 5×10^3 to 7×10^5 cells/ml are cultured in sterile 96-well plates in the presence of increasing concentrations of the drugs (test article, 0 to 100 μM), or vehicle in RPMI medium. The plates are then incubated for 24 to 96 h, and then 100 μl of CellTiter-Glo reagent is added to lyse the cells. After a 10-min incubation at room temperature, the luminescence is recorded in a luminometer with an integration time of 1 s per well. The luminescence signals for the drug-treated cells are normalized by the luminescence signal obtained from vehicle-treated cells. As an alternative method to quantitate cell viability, the trypan blue exclusion dye method was used. Vehicle- or drug-treated cells were assayed by adding trypan blue solution (0.4% in phosphate-buffered saline [PBS]) to the culture medium. After 3 min, the number of dead cells that retained the dye is compared to the total number of cells to calculate cell viability. GraphPad Prism 5 software is used to calculate IC50 and plot effect-dose curve of drugs. Multiplate reader: EnVision 2104 (PerkinElmer). % of control variability=100*[(X(drug_treated)−L(baseline))/(H(vehicle_control)−L(baseline))]. […]

PKCdelta = PKCdelta (Homo sapiens, UniProt Q05655); test: radiometric kinase assay, other kinases: PKCdelta; assay type: biochemical; settings: duplicate
Description: as §1

MLK1/MAP3K9 = MLK1/MAP3K9 (Homo sapiens, UniProt P80192); test: radiometric kinase assay, other kinases: MLK1/MAP3K9; assay type: biochemical; settings: duplicate
Description: as §1

c-MET = biological target: T6, c-MET (Homo sapiens, UniProt P08581); test: radiometric kinase assay, other kinases: c-MET; assay type: biochemical; settings: duplicate
T6 construct: other kinases of recombinant human cytoplasmic domain
Description: as §1

PKCmu/PKD1 = PKCmu/PKD1 (Homo sapiens, UniProt Q15139); test: radiometric kinase assay, other kinases: PKCmu/PKD1; assay type: biochemical; settings: duplicate
Description: as §1

[2] = system: NCI-N87 human stomach cancer cells; test: Cell Viability and Proliferation Assay, NCI-N87; assay type: cell-based; settings: after 24 incubation
Description: as §2

[3] = system: SK-HEP-1 human liver cancer cells; test: Cell Viability and Proliferation Assay, SK-HEP-1; assay type: cell-based; settings: SK-HEP1, after 24 incubation
Description: as §2

MEK1 = MEK1 (Homo sapiens, UniProt Q02750); test: radiometric kinase assay, other kinases: MEK1; assay type: biochemical; settings: duplicate
Description: as §1

[4] = system: CCI rats, mechanical allodynia; settings: CCI rats, 150 mg/kg oral dose
Description: Chronic Constriction Injury (CCI) Model of Neuropathic Pain in Rats. […] Chronic constriction injury of the sciatic nerve was produced by tying four loose ligatures around the left sciatic nerve according to the method of Bennett and Xie. […] Calibrated von Frey filaments were used to determine the lowest mechanical (tactile) threshold required to evoke a brisk paw withdrawal reflex in the rat hindpaws. Rats were allowed to acclimatize in wire mesh cages for 15-20 min prior to von Frey testing. Assessment of paw withdrawal thresholds (PWTs) using von Frey filaments was undertaken prior to CCI-surgery (pre-surgery baseline on day 0). Before the drug dosing on day 14, the pre-dose baseline was recorded for each rat. […] Drug-naïve CCI-rats (n=4-6 per group) were used. The oral vehicle was 0.5% CMC-Na/0.1% Tween 80 in distilled water. The positive control gabapentin was dissolved in the vehicle and orally given at 100 mg/kg (by oral gavage). Test compound was suspended in the vehicle and orally given at 50 mg/kg and 100 mg/kg.

CDK1/cyclinB = CDK1/cyclinB (Homo sapiens, UniProt P06493); test: radiometric kinase assay, other kinases: CDK1/cyclinB; assay type: biochemical; settings: duplicate
Description: as §1

Chain of PKD2/PRKD2 (Q9BZL6 whole entry): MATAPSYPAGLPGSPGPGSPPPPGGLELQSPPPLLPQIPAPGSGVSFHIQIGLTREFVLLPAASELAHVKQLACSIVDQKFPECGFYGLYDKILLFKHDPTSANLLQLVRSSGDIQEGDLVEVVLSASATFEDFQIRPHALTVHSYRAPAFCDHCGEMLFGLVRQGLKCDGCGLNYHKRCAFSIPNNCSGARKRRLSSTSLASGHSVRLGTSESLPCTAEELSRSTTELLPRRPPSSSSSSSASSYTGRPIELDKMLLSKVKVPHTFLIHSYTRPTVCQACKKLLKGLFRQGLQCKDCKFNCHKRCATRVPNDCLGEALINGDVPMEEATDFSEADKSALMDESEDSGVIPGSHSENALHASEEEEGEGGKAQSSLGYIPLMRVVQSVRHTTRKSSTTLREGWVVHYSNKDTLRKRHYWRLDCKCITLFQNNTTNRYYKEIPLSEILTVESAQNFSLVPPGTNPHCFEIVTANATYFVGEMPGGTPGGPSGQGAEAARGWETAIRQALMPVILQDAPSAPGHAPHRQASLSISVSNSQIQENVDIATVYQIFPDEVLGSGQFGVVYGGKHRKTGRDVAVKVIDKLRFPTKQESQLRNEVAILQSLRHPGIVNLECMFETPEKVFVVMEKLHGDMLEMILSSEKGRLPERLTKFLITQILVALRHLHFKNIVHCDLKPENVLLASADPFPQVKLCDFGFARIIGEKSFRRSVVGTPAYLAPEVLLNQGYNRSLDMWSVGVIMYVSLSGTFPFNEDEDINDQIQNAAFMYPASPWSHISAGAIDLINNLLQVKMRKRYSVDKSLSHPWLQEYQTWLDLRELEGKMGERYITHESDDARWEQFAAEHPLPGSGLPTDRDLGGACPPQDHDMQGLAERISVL
Chain of MEK1 (Q02750 whole entry): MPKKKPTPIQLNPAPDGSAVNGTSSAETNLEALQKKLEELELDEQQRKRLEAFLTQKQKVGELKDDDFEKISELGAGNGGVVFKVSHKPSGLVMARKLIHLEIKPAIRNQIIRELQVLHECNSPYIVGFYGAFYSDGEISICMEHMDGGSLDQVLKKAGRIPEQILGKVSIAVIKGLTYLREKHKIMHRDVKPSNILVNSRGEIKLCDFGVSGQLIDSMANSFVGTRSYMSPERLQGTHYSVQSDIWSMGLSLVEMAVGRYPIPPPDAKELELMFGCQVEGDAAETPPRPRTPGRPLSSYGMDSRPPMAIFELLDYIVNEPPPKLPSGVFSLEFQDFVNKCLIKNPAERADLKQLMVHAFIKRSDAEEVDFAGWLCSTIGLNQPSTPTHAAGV
T1 sequence (P17948 781-1338 limits assumed): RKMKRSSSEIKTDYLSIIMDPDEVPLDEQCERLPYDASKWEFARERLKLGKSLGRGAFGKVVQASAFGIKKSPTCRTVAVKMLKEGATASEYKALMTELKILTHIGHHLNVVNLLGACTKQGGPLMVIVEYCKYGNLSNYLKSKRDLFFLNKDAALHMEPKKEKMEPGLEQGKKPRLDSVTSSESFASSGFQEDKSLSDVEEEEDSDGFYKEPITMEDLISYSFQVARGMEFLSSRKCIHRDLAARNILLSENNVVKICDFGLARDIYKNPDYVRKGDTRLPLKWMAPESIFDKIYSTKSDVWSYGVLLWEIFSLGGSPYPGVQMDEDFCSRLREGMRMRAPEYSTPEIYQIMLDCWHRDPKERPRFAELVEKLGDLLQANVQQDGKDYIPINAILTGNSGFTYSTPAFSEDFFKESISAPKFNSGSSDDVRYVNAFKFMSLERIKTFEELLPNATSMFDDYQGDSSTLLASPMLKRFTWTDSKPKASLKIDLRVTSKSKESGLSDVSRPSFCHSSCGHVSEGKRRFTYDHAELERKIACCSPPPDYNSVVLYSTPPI
T3 sequence (P06213 980-1382 limits assumed): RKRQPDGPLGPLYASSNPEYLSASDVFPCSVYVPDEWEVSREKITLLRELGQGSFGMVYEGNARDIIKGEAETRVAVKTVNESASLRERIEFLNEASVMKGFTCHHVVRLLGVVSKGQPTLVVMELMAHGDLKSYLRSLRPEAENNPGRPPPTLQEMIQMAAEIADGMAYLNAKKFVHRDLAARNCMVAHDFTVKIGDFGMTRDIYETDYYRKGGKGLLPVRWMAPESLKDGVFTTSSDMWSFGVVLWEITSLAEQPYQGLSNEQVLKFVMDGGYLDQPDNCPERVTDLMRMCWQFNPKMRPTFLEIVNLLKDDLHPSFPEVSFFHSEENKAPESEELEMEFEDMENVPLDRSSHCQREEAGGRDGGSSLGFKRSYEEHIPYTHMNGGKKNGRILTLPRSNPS
T4 sequence (P21709 569-976 limits assumed): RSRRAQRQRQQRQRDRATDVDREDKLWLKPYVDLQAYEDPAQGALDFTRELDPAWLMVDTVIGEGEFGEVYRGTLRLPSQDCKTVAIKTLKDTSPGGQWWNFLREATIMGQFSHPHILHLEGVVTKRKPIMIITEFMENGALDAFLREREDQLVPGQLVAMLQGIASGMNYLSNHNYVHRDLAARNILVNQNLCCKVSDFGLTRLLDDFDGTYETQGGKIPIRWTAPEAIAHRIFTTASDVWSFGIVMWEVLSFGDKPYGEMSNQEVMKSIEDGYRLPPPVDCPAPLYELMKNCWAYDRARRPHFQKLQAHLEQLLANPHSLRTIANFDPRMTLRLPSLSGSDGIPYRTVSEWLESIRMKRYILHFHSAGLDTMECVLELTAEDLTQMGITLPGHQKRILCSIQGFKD
Chain of PKCdelta (Q05655 whole entry): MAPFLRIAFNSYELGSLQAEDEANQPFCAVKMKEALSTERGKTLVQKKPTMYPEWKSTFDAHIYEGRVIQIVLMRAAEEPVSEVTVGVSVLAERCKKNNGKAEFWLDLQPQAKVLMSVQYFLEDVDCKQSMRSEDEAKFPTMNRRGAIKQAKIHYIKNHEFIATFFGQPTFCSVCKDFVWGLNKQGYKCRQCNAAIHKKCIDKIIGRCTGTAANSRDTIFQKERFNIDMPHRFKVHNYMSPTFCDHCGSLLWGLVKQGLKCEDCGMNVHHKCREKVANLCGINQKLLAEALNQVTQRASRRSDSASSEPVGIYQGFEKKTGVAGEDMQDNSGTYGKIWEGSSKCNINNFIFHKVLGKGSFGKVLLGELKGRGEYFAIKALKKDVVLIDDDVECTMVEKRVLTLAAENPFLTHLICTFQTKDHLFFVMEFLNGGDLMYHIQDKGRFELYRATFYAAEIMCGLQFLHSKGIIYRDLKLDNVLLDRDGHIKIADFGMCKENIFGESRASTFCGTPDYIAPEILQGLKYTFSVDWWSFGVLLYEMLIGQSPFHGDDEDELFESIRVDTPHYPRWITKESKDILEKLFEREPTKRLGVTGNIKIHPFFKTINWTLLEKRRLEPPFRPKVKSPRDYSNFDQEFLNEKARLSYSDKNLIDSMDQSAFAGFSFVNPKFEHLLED
Chain of CDK1/cyclinB (P06493 whole entry): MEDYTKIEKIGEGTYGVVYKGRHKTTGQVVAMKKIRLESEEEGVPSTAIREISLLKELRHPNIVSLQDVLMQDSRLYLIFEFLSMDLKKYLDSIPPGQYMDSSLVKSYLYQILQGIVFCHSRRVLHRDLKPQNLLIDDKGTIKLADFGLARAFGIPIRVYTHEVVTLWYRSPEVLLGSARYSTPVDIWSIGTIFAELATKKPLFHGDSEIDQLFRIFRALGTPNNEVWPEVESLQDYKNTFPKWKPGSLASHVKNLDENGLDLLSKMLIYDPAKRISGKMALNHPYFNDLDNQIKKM
Chain of CDK1/cyclinB (P14635 whole entry partner): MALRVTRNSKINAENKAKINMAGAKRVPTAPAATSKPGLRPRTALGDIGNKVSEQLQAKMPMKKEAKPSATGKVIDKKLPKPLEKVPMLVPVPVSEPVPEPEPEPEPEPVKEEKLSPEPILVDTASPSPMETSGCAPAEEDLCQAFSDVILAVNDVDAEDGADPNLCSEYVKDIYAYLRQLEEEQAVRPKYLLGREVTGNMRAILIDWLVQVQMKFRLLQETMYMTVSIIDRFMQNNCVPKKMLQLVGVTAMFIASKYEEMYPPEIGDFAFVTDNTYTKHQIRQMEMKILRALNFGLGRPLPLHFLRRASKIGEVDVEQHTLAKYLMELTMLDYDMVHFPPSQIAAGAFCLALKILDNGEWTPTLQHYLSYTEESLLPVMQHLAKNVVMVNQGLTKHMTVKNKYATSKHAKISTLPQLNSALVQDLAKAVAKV
Chain of ITK (Q08881 whole entry): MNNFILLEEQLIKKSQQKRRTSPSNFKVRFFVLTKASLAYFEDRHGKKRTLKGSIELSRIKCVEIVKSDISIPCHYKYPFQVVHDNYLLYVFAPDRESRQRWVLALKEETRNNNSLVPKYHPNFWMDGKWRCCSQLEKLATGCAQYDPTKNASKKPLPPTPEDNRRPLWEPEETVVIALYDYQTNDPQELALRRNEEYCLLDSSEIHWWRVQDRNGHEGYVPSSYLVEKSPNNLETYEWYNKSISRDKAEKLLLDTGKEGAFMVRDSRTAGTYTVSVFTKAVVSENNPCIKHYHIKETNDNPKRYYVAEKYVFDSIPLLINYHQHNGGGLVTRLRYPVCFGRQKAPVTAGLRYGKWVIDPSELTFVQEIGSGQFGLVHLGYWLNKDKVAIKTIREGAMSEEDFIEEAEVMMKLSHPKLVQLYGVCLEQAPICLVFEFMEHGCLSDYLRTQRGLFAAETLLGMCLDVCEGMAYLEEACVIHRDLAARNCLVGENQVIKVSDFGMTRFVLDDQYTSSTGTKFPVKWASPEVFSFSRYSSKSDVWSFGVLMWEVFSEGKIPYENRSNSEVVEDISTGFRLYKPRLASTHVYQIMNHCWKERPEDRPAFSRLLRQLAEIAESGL

IC50 (FLT1): > 10 µM
IC50 (c-Src): > 10 µM
IC50 (MUSK): > 10 µM
IC50 (PKCzeta): > 10 µM
IC50 (ITK): > 10 µM
IC50 (LCK): > 10 µM
IC50 (PKCalpha): > 10 µM
IC50 (P38b/MAPK11): > 10 µM
IC50 (PKD2/PRKD2): > 10 µM
IC50 (ARAF): > 10 µM
IC50 (IR): > 10 µM
IC50 (FGR): > 10 µM
IC50 (JNK3): > 10 µM
IC50 (EPHA1): > 10 µM
IC50 (FGFR1): > 10 µM
IC50 [1]: 2 to 5 µM
IC50 (PKCdelta): > 10 µM
IC50 (MLK1/MAP3K9): > 10 µM
IC50 (c-MET): > 10 µM
IC50 (PKCmu/PKD1): > 10 µM
IC50 [2]: ~7 µM
IC50 [3]: ~5 µM
IC50 (MEK1): > 10 µM
IC50 (CDK1/cyclinB): > 10 µM
SMILES: Nc1c(N2CCN(C3CCCCC3)CC2)cc(Nc2ccc(C(=O)O)cc2)c2c1C(=O)c1ccccc1C2=O [Compound 12, 4-{[4-amino-3-(4-cyclohexylpiperazin-1-yl)-9,10-dioxo-9,10-dihydroanthracen-1-yl]amino}benzoic acid]
relative analgesic effect compared to morphine (HCl) at 3 mg/kg, s.c. [4]: about 48%
